Reference: patent US8304418B2, “Pyrazolopyrimidinone kinase inhibitor” (Agennix AG, priority 2007, dated 2012)
Where “and” joins values, the source holds several entries; their conditions need not be identical. Identical values can stand only once. Like-named read-outs stand apart in the source and are kept apart here.

Tests used:
A2780 = assay: Cell proliferation, A2780; format: cell-based; conditions: Homo sapiens
Method: (§1) The assays used for determining the properties of the kinase inhibitors were performed in accordance with standard procedures well known to those skilled in the art. For example, assays for determining inhibitory activity on CDKs or in cellular assays are described in WO 00/218962, WO 2005/026129, and WO 2005/063765. Solubility assays at pH 7.4 were essentially performed as described by Avdeef, A. in Pharmacokinetic Optimization in Drug Research; Testa, B.; van de Waterbeemd, H.; Folkers, G.; Guy, R. Eds.; Wiley-VHC: Zurich, 2001; pp 305-326. PAMPA permeability assays at pH 7.4 were essentially performed as described in Kansy et al., J. Med. Chem. 41: 1007-10, 1998.
(§2) When compared to IC50s of cellular proliferation by compound I, (as determined by the methods described earlier), the corresponding IC50 for cellular inhibition of CDK9-dependent RNAPII phosphorylation is approximately similar.

[1] = test system: CDK1-dependent Eg-5 phosphorylation on threonine 927; assay: In-cell Eg-5 phosphorylation (immunoblot); format: cell-based, human; conditions: Homo sapiens, 1 h
Description: This set of assays represents CDKs involved in cell cycle progression (CDK1, 4/6), and the “regulatory CDK” (CDK9) which is involved in transcriptional regulation.
The following cancer cell lines were investigated in the course of these studies: A2780 (ovarian), HCT116 (colon), RPMI8226 (myeloma), SKMel28 (melanoma), Colo205 (colorectal), MDA-MB-435 (melanoma), MDA-MB-453 (breast, carcinoma), MDA-MB-468 (breast, adenocarcinoma), A549 (lung), Raji (lymphoma, Burkitt). Cell lines were obtained from public repositories.
CDK1-dependent Eg-5 phosphorylation on threonine 927 (Thr927phos). Thr927phos was investigated by arresting cells over night in G2/M phase with 25 ng/ml nocodazole (optimized final concentration) followed by treatment with DMSO as control or an appropriate concentration of test compound for 1 hour. Detached as well as adherent cells were collected and lysed with CLB-1 lysis buffer. the lysate cleared by centrifugation and subjected to SDS-PAGE. The proteins were blotted on PVDF membranes and subsequently analyzed by antibodies against total Eg-5 (Becton Dickinson) and Eg-5 Thr927phos (Bio legend). Visualization and estimation of IC50 was conducted as above.

MDA-MB-468 = assay: Cell proliferation, MDA-MB-468; format: cell-based; conditions: Homo sapiens
Method: as §1, §2

H460 NSCLC = conditions: H460; for Max % TGI (d): day 13
Method: (§3) Xenograft Tumor-Models: 100 athymic nu/nu female mice (6-8 weeks old) from CRL were allowed to acclimate for 4 days. […] The 3rd passage of cells with approximate 90% confluence was used for these experiments. Briefly, on Day 0, mice were inoculated with 0.1 ml (total 5×10^6 cells) of the respective cell-type as a cell suspension (50×10^6 cells/ml) by subcutaneous injection into the fat pad area near the mammary gland under light anesthesia. When the average tumor weight in all mice reached over 100 mg (day 10), 80 animals with an average tumor size of 130 mg were selected and were randomly divided into 8 groups.
(§4) A 20 G gavage needle was used for the oral treatment.
(§5) Tumor growth and body weight were monitored and recorded three times a week. Tumors were measured by determining the length and width of the tumor with a digital caliper. Tumor weight was estimated using the following formula: Tumor Weight (mg)=(w^2×1)×0.52 where w=width and l=length in mm of the tumor.
(§6) Experimental treatment may cause partial regression (PR) or complete regression (CR) of tumors. PR is defined when the tumor size is 50% or less than the starting (day 1) size but greater than 0.0 mg for three consecutive measurements during the course of the study. CR occurs when there is no measurable tumor mass for three consecutive measurements. Cures are defined when CR are maintained until the completion of the experiment.
(§7) Mice were sacrificed when their tumors reached the 1000 mm^3 endpoint volume. Treatment efficacy was determined as Log Cell Kill (LCK).
(§8) Toxic deaths are defined as deaths caused by compound treatment and not by advanced disease state. […] Non-tumor related deaths after this point are recorded, but not considered toxic deaths.
(§9) Briefly, the empirical distributions of T and Td were derived from B=1000 realisations of random selection of n individual animals with replacement from the set i=1, . . . , n of the appropriate group of mice containing n evaluable animals, estimating the mean tumor size for such selection of animals for each time-point, and linear regression analysis from a semi-log plot of such averages against time. Dead mice and mice with no measurable tumor size were treated as missing data and were ignored when calculating the average.

CDK9 = CDK9 (Homo sapiens, UniProt P50750); assay: Biochemical CDK9 inhibition assay; conditions: read-out: enzymatic IC50 of CDK9 activity
CDK9, sequence (P50750 whole entry): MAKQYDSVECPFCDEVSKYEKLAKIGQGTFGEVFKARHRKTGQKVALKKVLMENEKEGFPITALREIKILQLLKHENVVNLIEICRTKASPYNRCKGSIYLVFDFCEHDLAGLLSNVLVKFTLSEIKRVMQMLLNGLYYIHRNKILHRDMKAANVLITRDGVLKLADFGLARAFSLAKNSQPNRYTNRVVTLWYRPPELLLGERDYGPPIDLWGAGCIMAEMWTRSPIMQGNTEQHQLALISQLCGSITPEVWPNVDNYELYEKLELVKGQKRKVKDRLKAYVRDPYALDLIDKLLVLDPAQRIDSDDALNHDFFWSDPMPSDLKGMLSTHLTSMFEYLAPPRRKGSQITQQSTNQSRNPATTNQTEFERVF
CDK9, sequence (O60563 whole entry partner): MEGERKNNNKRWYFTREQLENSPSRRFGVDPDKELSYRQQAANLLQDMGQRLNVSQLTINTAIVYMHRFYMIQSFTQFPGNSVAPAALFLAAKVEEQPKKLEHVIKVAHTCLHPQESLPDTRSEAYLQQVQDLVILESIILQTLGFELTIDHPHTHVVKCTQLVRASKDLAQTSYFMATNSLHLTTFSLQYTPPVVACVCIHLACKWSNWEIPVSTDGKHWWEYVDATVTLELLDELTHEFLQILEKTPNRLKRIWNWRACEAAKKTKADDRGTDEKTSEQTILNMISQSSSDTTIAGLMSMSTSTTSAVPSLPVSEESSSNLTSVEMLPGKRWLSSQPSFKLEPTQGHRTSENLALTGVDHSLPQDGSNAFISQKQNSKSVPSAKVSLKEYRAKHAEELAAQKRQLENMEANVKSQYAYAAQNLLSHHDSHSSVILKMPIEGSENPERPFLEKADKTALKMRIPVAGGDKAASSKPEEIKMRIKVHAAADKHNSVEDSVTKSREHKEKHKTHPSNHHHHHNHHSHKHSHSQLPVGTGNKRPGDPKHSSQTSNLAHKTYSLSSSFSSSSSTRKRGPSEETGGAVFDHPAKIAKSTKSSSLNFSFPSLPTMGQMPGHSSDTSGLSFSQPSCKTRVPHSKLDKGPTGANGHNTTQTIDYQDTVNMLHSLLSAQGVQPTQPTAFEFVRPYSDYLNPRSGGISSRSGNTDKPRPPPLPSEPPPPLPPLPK
Method: as §1

[2] = test system: HCT116 colon carcinoma cells
Method: as §3, §4, §5, §6, §7, §8, §9

HCT116 = assay: Cell proliferation, HCT116; format: cell-based; conditions: Homo sapiens, HCT-116
Method: as §1, §2

CC(C)c1nn(-c2c(Cl)cncc2Cl)c2nc(Cc3ccc(CN4CCCC4)c(O)c3)[nH]c(=O)c12 [Compound I, 1-(3,5-dichloropyridin-4-yl)-6-(3-hydroxy-4-pyrrolidinomethyl-phenyl)methyl-3-isopropyl-pyrazolo[3,4-d]pyrimidin-4-one]
IC50 (A2780): ~0.1 µM | IC50 ([1]; COLO 205, Colo205 cells): ~1 µM | IC50 ([1]; HCT-116, HCT116 cells): ~3 µM | IC50 ([1]; RPMI-8226, RPMI8226 cells): > 1 µM | IC50 ([1]; A549 cells): > 1 µM | IC50 ([1]; A2780 cells): ~1 µM | IC50 ([1]; MDA-MB-435 cells): ~0.5 µM | IC50 ([1]; MDA-MB-453 cells): ~1 µM | IC50 ([1]; Raji cells): > 1 µM | IC50 (MDA-MB-468): ~0.3 µM | Toxic Mortality (H460 NSCLC; 32 [30] mg/kg po qdx10, N=10): 0 | Max % TGI (d) (H460 NSCLC; 32 [30] mg/kg po qdx10): 30.7 (13) % | LCK ± CI (95%) (Td: 2.6 d) (H460 NSCLC; 63 [59] mg/kg po qdx10): 0.48 ± 0.15 and 0.48 | Toxic Mortality (H460 NSCLC; 63 [59] mg/kg po qdx10, N=10): 0 | Max % TGI (d) (H460 NSCLC; 63 [59] mg/kg po qdx10): 43.1 (13) % | LCK ± CI (95%) (Td: 2.6 d) (H460 NSCLC; 95 [89] mg/kg po qdx10): 0.97 ± 0.25 and 0.97 | Toxic Mortality (H460 NSCLC; 95 [89] mg/kg po qdx10): 2/10 | Max % TGI (d) (H460 NSCLC; 95 [89] mg/kg po qdx10): 57.1 (13) % | IC50 (CDK9): 1 to 10 nM | LCK ± CI (95%) (Td: 6.8 d) ([2]; HCT116, 31.6 [29.5] mg/kg po qdx10): 0.21 ± 0.08 and 0.21 | Max % TGI (d) ([2]; HCT116, 31.6 [29.5] mg/kg po qdx10, day 32): 32.7 (32) % | LCK ± CI (95%) (Td: 6.8 d) ([2]; HCT116, 63.3 [59.1] mg/kg po qdx10): 0.51 ± 0.17 and 0.51 | Max % BW Loss (d) ([2]; HCT116, 63.3 [59.1] mg/kg po qdx10, day 16): 3.2 (16) % | Max % TGI (d) ([2]; HCT116, 63.3 [59.1] mg/kg po qdx10, day 32): 58.5 (32) % | LCK ± CI (95%) (Td: 6.8 d) ([2]; HCT116, 95 [89] mg/kg po qdx10): 0.60 ± 0.17 and 0.60 | Toxic Mortality ([2]; HCT116, 95 [89] mg/kg po qdx10): 1/10 | Max % TGI (d) ([2]; HCT116, 95 [89] mg/kg po qdx10, day 20): 68.4 (20) % | Max % BW Loss (d) ([2]; mouse, in vivo, po): 10.2 (16) % | IC50 (HCT116): ~0.1 µM
